# Measured values taken from US7678390B2, “Carbon monoxide as a biomarker and therapeutic agent” (priority 1999, dated 2010).
# Test system: RAW 264.7 macrophages
# Test: LPS-induced cytokine production in macrophages (ELISA, Western)
# Type: cell-based, mouse
# Conditions: for TNF-α: RAW 264.7 macrophages
# Source text: Animals. Male C57BL/6 and IL-10 (−/−) mice were purchased from Jackson Laboratory (Bar Harbor, Me.), and allowed to acclimate for one week with rodent chow and water ad libitum. The MKK (−/−) mice were generated as previously described [Lu, et al., EMBO J. 18:1845-1857 (1999)]. Wild type littermates were used as controls. All animals were housed in accordance with guidelines from the American Association for Laboratory Animal Care and Research Protocols and were approved by the Animal Care and Use Committee of Yale University School of Medicine. Reagents. All reagents were purchased from Sigma Chemical Co. (St Louis, Mo.) unless specified otherwise. Plasmid Construct. Plasmid pSFFV/HO-1 was constructed by insertion of the rat HO-1 cDNA [Shibahara, et al., Proc. Natl. Acad. Sci. USA. 82: 7865-7869 (1985)] downstream of the Friend spleen focus-forming virus 5′ long-terminal repeat in the mammalian expression vector pSFFV/neo [Fuhlbrigge, et al, Proc. Natl. Acad. Sci. USA. 85: 5649-5653 (1988)] (kindly provided by Stanley Korsmeyer). Transfection. Stable transfections were carried out by the calcium phosphate precipitation technique as previously described [Alam, J., J. Biol. Chem. 269: 25049-25056 (1994)]. Briefly, RAW cells were plated (1×10^6/10 cm plate) and 16 h later, transfected with […] of pSFFV/neo or pSFFV/HO-1. Cells were exposed to the DNA-CaPO4 precipitate for 6 h, shocked by a 1 min treatment with glycerol in phosphate-buffered saline and cultured for an additional 24 h in complete medium before addition of G418. Transfectants were selected over a 3-week period in the presence of G418 (up to […]) and individual clones were isolated by limited dilution. Cell Culture Experimentation. RAW 264.7 mouse peritoneal macrophages were purchased from […] (Rockville, Md.) and primary culture of rat pulmonary vascular smooth muscle cells were harvested from male Sprague Dawley rats (250-300 g) as previously described [Gunther, et al., J. Cell. Biol. 92: 289-298 (1982).]. Both cell types were grown in DMEM containing 10% FBS and gentamicin ([…]) in a humidified atmosphere of 5% CO2/balanced air or 250 ppm CO/5% CO2/balanced air. After a 2 h pretreatment with either CO or air, LPS ([…]) or sterile saline was added to the culture media and the culture plates were returned to the chamber(s). At various time points, cell plates were removed from the chamber to collect media and/or cells for Western analysis. CO Exposures. Mice or macrophages were exposed to compressed air or 250 ppm CO. For cell culture experiments, 5% CO2 was also present for buffering requirements. CO at a concentration of 1% (10,000 ppm) in compressed air was mixed with compressed air with or without CO2 in a stainless steel mixing cylinder before delivery into the exposure chamber. Flow into the 3.70-ft^2 plexiglass animal chamber was maintained at 12 L/min and into the 1.2 ft^2 cell culture chamber at a flow of 2 L/min. The cell culture chamber was humidified and maintained at 37° C. A CO analyzer (Interscan, Chatsworth, Calif.) was used to measure CO levels continuously in the chambers. Gas samples were taken by the analyzer through a port in the top of the chambers at a rate of 1 L/min and analyzed by electrochemical detection, with a sensitivity of 10-600 ppm. Concentration levels were measured hourly and there were no fluctuations in the CO concentrations once the chamber had equilibrated (approximately 5 min). Animal Experimentation. Mice were prebled from the retroorbital sinus (0.25 ml) and then exposed to CO (250 ppm) or room air for 1 h prior to administration of LPS (1 mg/kg, i.p.), E. coli serotype O127:B8. 1 and 16 h thereafter, they were removed from the exposure apparatus individually and a blood sample was obtained via the retroorbital sinus. After the blood collection, the mice were immediately returned to the exposure chamber. […]
smiles,measurement,setting,value
"Nc1nc2c(nc(Br)n2[C@@H]2O[C@@H]3COP(=O)(O)O[C@H]3[C@H]2O)c(=O)[nH]1 [8-Br-cGMP, reference compound]",TNF-α,with LPS,530 ± 35 pg/mL
same,TNF-α,without LPS,18 ± 6 pg/mL
same,effect on LPS-induced TNF-α production,added to macrophage culture followed by LPS,no effect
